# US20100048732A1, “Method of mediating Airway Smooth Muscle Construction Due to Airway Irritation” (priority 2006, published 2010)
# Starred links: 1 amine or outer side, 2 acyl side, 3 side chain; linkers in the order of their positions; H or OH if unused. Positions of bridges follow the written chain, without caps; N, C: chain ends. Non-standard residues stand in square brackets, D forms with d. Residues, ends and D or L forms follow the SMILES beside them. No end group written: not given here. *: point of attachment. X2 = CN(/C(=C\c1ccc(O)cc1)C(=O)[*:2])[*:1]; X1 = CCCCCc1ccccc1CCC(=O)*
# Experiments:
# [1] = test system: acetylcholine-induced contractions, isolated rings of guinea pig trachea; conditions: isolated guinea pig tracheal rings; clinically significant/relevant concentrations; FIG. 1
# From the text: Intravenous anesthetics were compared for their ability to relax airway smooth muscle contractions in isolated rings of guinea pig trachea in response to acetylcholine.
# [2] = test system: histamine induced contractions, guinea pig tracheal rings; conditions: within clinically relevant concentrations, FIG. 4
# Protocol: (§5) To determine if propofol and thiopental have the ability to relax histamine or endothelial induced contractions, propofol and thiopental were evaluated at clinical and supra-clinical concentrations to determine their ability to relax histamine or endothelin-1 induced contractions in guinea pig tracheal rings.
# [3] = test system: endothelin-1 induced contractions, guinea pig tracheal rings; conditions: within clinically relevant concentrations, FIG. 4
# Protocol: as §5
# [4] = test system: substance P contraction, human tracheal rings; assay: Substance P contraction of human tracheal rings in organ baths and its relaxation; type: cell-based; conditions: human tracheal rings in organ baths; for relaxation of substance P contraction in human tracheal rings: cumulative concentrations, FIG. 5, FIG. 9
# Protocol: (§1) (FIG. 9.) To determine if the mechanism of propofol's relaxation of a tachykinin response was mediated by GABAA receptors, the ability of an antagonist of GABAA receptors should inhibit propofol's response was evaluated. […] (FIG. 10.)
# [5] = test system: cholinergic nerve mediated contractions, guinea pig tracheal rings; assay: Relaxation of cholinergic nerve mediated contractions in guinea pig tracheal rings; type: cell-based; conditions: clinically relevant concentrations, FIG. 1, FIG. 3C-D
# Protocol: To distinguish between the two possibilities, intravenous anesthetics were evaluated for their effects on attenuating bronchoconstriction induced by activation of the cholinergic nerves (liberating acetylcholine). […] (FIG. 1.)
# (§2) Propofol is known to have preferential protective airway effects during intubation compared to other intravenous anesthetics (3, 4). To determine if two other commonly used intravenous anesthetics have similar protective airway effects on contractile challenges, etomidate and ketamine were evaluated to determine their ability to relax airway smooth muscle contraction induced by NANC nerve stimulation (FIGS. 3A and B), cholinergic nerve stimulation (FIGS. 3C and D), and exogenous addition of substance P (FIGS. 3E and F) to isolated guinea pig tracheal rings in organ baths.
# [6] = test system: NANC contractions, epithelium-denuded guinea pig tracheal rings; assay: Relaxation of NANC (C fiber, neurally liberated tachykinin) contractions in guinea pig tracheal rings; type: cell-based; conditions: clinically relevant concentrations, FIG. 2, FIG. 3A-B
# Protocol: (§3) Substance P is an endogenous tachykinin released in airways by C fibers during irritation of the airway.
# as §2
# [7] = test system: substance P contraction, guinea pig tracheal rings; assay: Relaxation of substance P-induced contraction in guinea pig tracheal rings; type: cell-based; conditions: FIG. 2, FIG. 3E-F, FIG. 8
# Protocol: as §3, §2
# Propofol's effect as an anesthetic is modulated by an allosteric potentiation of GABA at GABAA receptors in the brain. However, we are unaware of any report that GABAA receptors have been found on airway smooth muscle.
# GABAA receptors = conditions: FIG. 10
# Protocol: as §1
# guinea pig airway rings = conditions: cited from earlier work
# [8] = test system: bradykinin induced bronchoconstriction; conditions: asthmatics; cited from earlier work
# [9] = test system: NK1-induced contraction, guinea pig tracheal rings; conditions: guinea pig tracheal rings stimulated with acetyl-substance P; FIG. 6A
# From the text: (§4) Guinea pig tracheal rings stimulated with acetyl-substance P to produce an NK1-induced contraction (FIG. 6A) and with neurokinin A to produce an NK2-induced contraction (FIG. 6B).
# [10] = test system: NK2-induced contraction, guinea pig tracheal rings; conditions: guinea pig tracheal rings stimulated with neurokinin A; FIG. 6B
# From the text: as §4
# [11] = test system: L-type calcium channels, intracellular calcium changes, inositol phosphate synthesis in airway smooth muscle; conditions: above clinically achieved concentrations; cited from earlier work
# [12] = test system: contractile responses from acetylcholine, histamine, and endothelin in airway tissues; conditions: airway tissues from humans and animal models; cited from earlier work
# [13] = test system: permeabilized canine tracheal smooth muscle cells; conditions: absence or presence of muscarinic receptor activation, propofol 270 μM; cited from earlier work
# [14] = test system: methacholine, histamine-induced (neural component) or vagal nerve-induced bronchoconstriction; conditions: neural component of histamine-induced, or vagal nerve-induced bronchoconstriction; cited from earlier work
# [15] = test system: vagal nerve induced bronchospasm; conditions: sheep; delivery via the bronchial artery; cited from earlier work
# [16] = test system: methacholine induced bronchoconstriction; conditions: sheep; delivery via the bronchial artery; cited from earlier work
compound,measurement,setting,value
CCCC(C)C1(CC)C(=O)NC(=S)NC1=O (stereo not shown) [thiopental],relaxation of acetylcholine-induced contractions,[1],dose-dependently relaxed
same,relaxation of histamine induced contraction,[2],neither anesthetic effected the spontaneous relaxation
same,relaxation of endothelin-1 induced contraction,[3],neither anesthetic effected the spontaneous relaxation
"Substance P (RPKPQQFFGLM-NH2; ends and bridges not checked; UniProt P20366 58-68, looked up) [endogenous tachykinin released in airways by C fibers during irritation of the airway]",contraction of human tracheal rings,[4]; FIG. 5,dose-dependently contracted
CCOC(=O)c1cncn1[C@H](C)c1ccccc1 [etomidate],relaxation of cholinergic nerve mediated contractions,[5],failed to relax
same,attenuation/relaxation of NANC contractions (neurally liberated tachykinins),[6],failed to relax
same,attenuation/relaxation of substance P (exogenous tachykinin) contraction,[7],failed to relax
COc1ccc(-c2ccc(=N)n(CCCC(=O)O)n2)cc1 [Gabazine],reversal of propofol mediated relaxation of a substance P contraction,GABAA receptors,able to reverse propofol mediated relaxation
NCc1cc(=O)[nH]o1 [muscimol],attenuation/relaxation of substance P (exogenous tachykinin) contraction,[7],dose-dependently relaxed
same,relaxation of substance P contraction in human tracheal rings,[4],dose dependently relaxed
same,effect on acetylcholine-induced contraction,guinea pig airway rings,failed to show an effect
same,effect on basal tone,guinea pig airway rings,failed to show an effect
CCCCCc1ccccc1CCC(=O)NC1C(=O)N(C)/C(=C\c2ccc(O)cc2)C(=O)NC(CC(C)C)C(=O)NC(Cc2ccccc2)C(=O)NC(C(C)O)C(=O)NC(CC(N)=O)C(=O)NC(CO)C(=O)OC1C (stereo not shown) [FK224] (X1-T[X2]LFTNS; ester 1-C; configuration not given here),effect on bradykinin induced bronchoconstriction,[8],attenuated bradykinin induced bronchoconstriction
"CC(C)c1cccc(C(C)C)c1O [propofol, 2,6-diisopropylphenol]",relaxation of cholinergic nerve mediated contractions,[5],failed to relax
same,attenuation/relaxation of NANC contractions (neurally liberated tachykinins),[6],more effective than thiopental
same,attenuation/relaxation of substance P (exogenous tachykinin) contraction,[7],more effective than thiopental
same,relaxation of substance P contraction in human tracheal rings,[4],dose-dependently relaxed
same,relaxation of NK1-induced contraction,[9],much less effective
same,relaxation of NK2-induced contraction,[10],significantly relaxed
same,relaxation of acetylcholine-induced contractions,[1],without effect
same,relaxation of histamine induced contraction,[2],neither anesthetic effected the spontaneous relaxation
same,relaxation of endothelin-1 induced contraction,[3],neither anesthetic effected the spontaneous relaxation
same,"propofol concentration needed for effects on L-type calcium channels, intracellular calcium or inositol phosphate signaling",[11],> 100 µM
same,"propofol concentration attenuating contractile responses from acetylcholine, histamine, endothelin",[12],100 to 300 µM
same,calcium sensitivity,[13],not effected
same,propofol concentration attenuating bronchoconstriction in dogs,[14],20 mg/mL
same,propofol dose attenuating vagal nerve induced bronchospasm,[15],0.3 mg/min
same,propofol dose attenuating methacholine induced bronchoconstriction,[16],3 mg/min
CNC1(c2ccccc2Cl)CCCCC1=O (stereo not shown) [ketamine],relaxation of cholinergic nerve mediated contractions,[5],failed to relax
same,attenuation/relaxation of NANC contractions (neurally liberated tachykinins),[6],failed to relax
same,attenuation/relaxation of substance P (exogenous tachykinin) contraction,[7],failed to relax
